Two compounds from patent US20110003774A1, “COMPOUNDS HAVING ANTI-PROLIFERATIVE PROPERTIES” (VITAL HEALTH SCIENCES PTY. LTD., priority 2003, published 2011) can be followed below.

The subject of test [1] is Rat Aortic Smooth Muscle Cells (RASMC). In words: Smooth muscle cell proliferation - cell counts (Example 1). It counts as cell-based. Conditions: for Inhibition of cellular proliferation (in words): cell counts after 72 h, tested 0.25-100 μM. The source says:
The Rat Aortic Smooth Muscle Cells (RASMC) used in proliferative studies are derived from the tunica intima and tunica media of healthy, fibrous plaque-free adult rat aorta. This cell line is an accepted model for the study of atherosclerosis, since increased arterial smooth muscle mass are found in the intima lesion of atherosclerosis. RASMC are cryopreserved at second passage and can be propagated at least 16 population doublings. RASMC respond to various factors by cell proliferation and hypertrophy, which are prominent indicators of atherosclerosis in vascular disease. RASMC are well suited for the study of large vessel smooth muscle cell growth and differentiation and serve as an in vitro model in correlation with live rat models.
Rat Aortic Smooth Muscle Cells (RASMC) were seeded in growth medium (basal medium+10% FBS) into 6 well plates (50,000 cells/well). After 24 h, cells were washed twice with Hanks Buffered Salt Solution and serum depleted media (basal medium+0.2% FBS) was added to each well. Cells were serum starved for 48 h. Treatments were then prepared in growth medium and added to each well (3 ml/well). Each treatment was conducted in triplicate. The effect of tocopherol and tocopherol phosphate on smooth muscle cell proliferation was tested at eight concentrations: 0.25, 0.5, 1, 5, 10, 20, 50 and 100 μM. Control treatments included: growth medium and growth medium+vehicle (EtOH, 1/1000). After a 72 h incubation period at 37° C., 5% CO2, cells were counted.
Cell proliferation was assessed and quantified by cell counting. Cells were counted after 48 h starvation in basal medium supplemented with 0.2% serum before the addition of test compounds. The average cell count of triplicate wells was ˜60,000. This number exceeds the number of cells seeded prior to starvation (50,000). Therefore the cells were determined to be viable and treatments were added to each well as described previously.

For test [2], the system named is CD36 scavenger receptor. The experiment in a line: Surface expression of CD36 scavenger receptor, FACS with antiCD36-FITC. Conditions: THP-1 monocytes, control cells treated with tocopherol. It counts as cell-based, human. As to the method:
(§1) Cell Culture: Tocopherol and the TP/T2P mixture were each dissolved in ethanol, and the concentrations of the stock solutions were confirmed spectrophotometrically. Monocytes (THP-1) were grown in RPMI/10% FCS.
FIG. 6 represents the change in cell numbers over time as indicated by the number of cells which have taken up the fluorescent antibody.

Test [3] concerns THP-1 monocytes. In words: Uptake of oxLDL-DiO by FACS. In kind it is cell-based, human. Here is the method:
Labeling oxLDL. OxLDLs (90% to 100% oxidation) were purchased from Intracell Corp. Small amounts of LDL were oxidized with CuSO4 ([…]) at 37° C. for 18 to 22 hours. LDL oxidation was confirmed by the formation of a characteristic smear band on an agarose gel. Labeling of oxLDL was done basically as previously described. OxLDLs were incubated at 37° C. with DiO (Molecular Probes) in lipoprotein-deficient serum (Sigma) for 15 hours. The labeled oxLDLs (oxLDL-DiO) were purified by ultracentrifugation over a KBr gradient and dialyzed against several changes of saline-EDTA ([…] NaCl-0.01% EDTA) for 6 hours.
Uptake of oxLDL: Uptake of oxLDL was studied with fluorescence-activated cell sorting (FACS). For FACS, the cells were pretreated for 16 hours with 50 μM tocopherol, tocopheryl phosphates, or ethanol solvent (control) and then incubated with oxLDL-DiO (5 μg/mL medium) for 6 hours. For competition experiments, the cells were incubated with monoclonal anti-CD36 antibody (60 μg/5 mL DMEM) (Ancell), with an unspecific isotype-matched antibody (mouse IgM, Ancell), or with unlabeled oxLDL (100 μg/5 mL DMEM) (Intracell Corp). Thereafter, the cells were washed 3 times with PBS and twice with PBS-3 mg/mL BSA and then were detached with trypsin (0.25% trypsin, 0.03% EDTA). […] Data were calculated by subtracting the cell autofluorescence from the fluorescence of the treated samples.
On the technique in general: A flow cytometer gives signals particle by particle.

Test [4] concerns THP-1 monocytes. In words: Growth inhibition of THP-1 monocytes. It counts as cell-based, human. As to the method: as §1
Growth inhibition by TP/T2P mixture of THP-1 Monocytes: Monocyte proliferation is an important event in the onset and progression of atherosclerosis.

For test [5], the system named is Rat Aortic Smooth Muscle Cells (RASMC). The experiment in a line: Counting adhered cells (Example 2, Study 1). It counts as cell-based. Conditions: adhered cell counts, 0-100 μM, vs vehicle control. As to the method:
This example assesses the anti-proliferative activity of α-tocopheryl phosphate (TP), di-tocopheryl phosphate (T2P), the TP/T2P mixture and α-tocopherol using two types of cell counting assays: adhered cell counts and MTS assay.
In this study cells remaining on the bottom of the plate were counted and anti-proliferative activity was assessed based on the number of viable cells that remained adhered to the plate.

Test [6] has the same test system. In words: MTS proliferation assay (Example 2, Study 2). In kind it is cell-based. Conditions: 100 μM, vs vehicle control. Here is the method: The MTS proliferation assay was conducted to further support and compliment the adhered cell counts assay. The MTS assay is a well established method for the assessment of cellular proliferation which takes into account the viable cells that are adhered to the plate (as in adhered cell counts) and those that may become detached and float in the media during the course of the experiment (which would be missed in adhered cell counts).
In general terms: Tetrazolium dyes change colour on reduction, which living cells bring about.

Regarding `Cc1c(C)c2c(c(C)c1O)CC[C@@](C)(CCC[C@H](C)CCC[C@H](C)CCCC(C)C)O2` [tocopherol, α-tocopherol], the “Optimum inhibition of proliferation (plateau)” value in test [1] (72 h, higher doses) is “around 60%”. Further, the figures for the “Inhibition of cellular proliferation (in words)” value in test [1] (listed as Tocopherol) and in test [1] (listed as α-tocopherol) were “inhibited only to some degree” and “partially inhibited”, respectively. The “CD36 expression (in words)” value in test [2] is “expressed large amounts of CD36 receptors”. For the same compound, in test [3], the “Concentration giving the same inhibition of oxLDL uptake (as 50 μM tocopherol, 33% reduction)” value amounted to 50 µM. For the same compound, the “Reduction of OxLDL-DiO uptake signal (median of the peak)” value in test [3] (50 μM, 16 h pretreatment, 6 h oxLDL-DiO) is given as 33%. The “Inhibition of monocyte proliferation (in words)” value in test [4] (THP-1, TP/T2P at 30 μM (TP1) and 60 μM (TP2), especially after 48 h, relative to ethanol control) is listed as “not able to inhibit”. Also, the “Inhibition of proliferation of human monocyte cells” value in test [4] (THP-1 monocytes) is “no inhibition”.

For α-tocopheryl phosphate [TP], the “Maximum inhibition of smooth muscle cell proliferation” value in test [5] was “did not inhibit”. The “Inhibition of smooth muscle cell proliferation” value in test [6] is “up to 85%”.
